How the values were obtained:
recombinant human PAI-1 [1] = target: T1, recombinant human PAI-1 (Homo sapiens, UniProt P05121); experiment: Inhibition of complex formation of PAI-1 and tPA (SDS-PAGE); format: biochemical; details: 100 μM concentration
Procedure: To a 2.5 μL solution obtained by diluting a DMSO solution of the test compound at 4-fold concentration of the test concentration with PBS(-), 5 μL of 150 nM recombinant human PAI-1 solution adjusted with a phosphate buffer (pH6.6, 0.05M Sodium Phosphate, 0.1 M NaCl, 1 mM EDTA) was added, and reacted for 5 minutes at 37° C. […] of 600 nM recombinant human one-chain tPA solution adjusted with PBS(-) was added, and further reacted for 5 minutes at 37° C. 10 μL of stop buffer (1.25 mM Tris-HCl pH6.8, 4% SDS, 0.01% BPB, 14% Glycerol) was added, heated for 30 seconds at 100° C., and then the total amount of 20 μL was applied to 10% SDS-PAGE gel electrophoresis. When the test compound was not added as being a control, a band of PAI-1-tPA complex was observed.

recombinant human PAI-1 [2] = target: T1, recombinant human PAI-1; experiment: PAI-1 inhibitory activity, Test Method A (tPA fluorogenic substrate, Tris buffer pH8.0, 37 C); format: biochemical; details: for Inhibitory Ratio at 25 μM (%): Test Method A; for IC50: 50% inhibitory concentration of PAI-1 activity, according to the aforementioned method

T1 sequence (P05121 24-402): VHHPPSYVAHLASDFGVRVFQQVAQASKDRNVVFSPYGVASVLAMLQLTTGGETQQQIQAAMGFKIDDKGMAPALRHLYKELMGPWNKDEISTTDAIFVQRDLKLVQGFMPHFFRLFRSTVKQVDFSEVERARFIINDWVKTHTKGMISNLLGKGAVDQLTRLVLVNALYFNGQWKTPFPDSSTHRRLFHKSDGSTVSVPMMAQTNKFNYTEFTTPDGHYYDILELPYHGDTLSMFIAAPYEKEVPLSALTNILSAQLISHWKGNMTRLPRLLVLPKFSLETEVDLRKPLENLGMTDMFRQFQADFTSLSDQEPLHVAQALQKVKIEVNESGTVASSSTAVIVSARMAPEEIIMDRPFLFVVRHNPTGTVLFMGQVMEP

Inhibitory Ratio at 25 μM (%) (recombinant human PAI-1 [2]; 25 μM test compound) | Inhibitory Ratio at 25 μM (%) (recombinant human PAI-1 [2]; test compound 25 μM) | SMILES | also measured
>99 | – | O=C(Nc1ccc(CN2C(=O)SC(=Cc3cccc(O)c3O)C2=O)cc1)c1ccc(Oc2ccccc2)cc1 [compound 316, 5-(2,3-Dihydroxybenzylidene)-3-[4-(4-phenoxybenzoylamino)benzyl]-thiazolidine-2,4-dione] | inhibition of the complex formation of PAI-1 and tPA observed with SDS-PAGE (recombinant human PAI-1 [1]): completely inhibited; IC50 (recombinant human PAI-1 [2]): 460 nM
– | >99 | O=C1SC(=Cc2cccc(O)c2O)C(=O)N1Cc1ccc(Cl)cc1Cl [compound 22, 5-(2,3-Dihydroxybenzylidene)-3-(2,4-dichlorobenzyl)thiazolidine-2,4-dione] | inhibition of the complex formation of PAI-1 and tPA observed with SDS-PAGE (recombinant human PAI-1 [1]): completely inhibited; IC50 (recombinant human PAI-1 [2]): 440 nM
89 | – | CC(C)C1=NN(c2cc(Cl)cc(Cl)c2)C(=O)C1=Cc1cc(O)c(O)cc1O [compound 504] | inhibition of the complex formation of PAI-1 and tPA observed with SDS-PAGE (recombinant human PAI-1 [1]): completely inhibited; IC50 (recombinant human PAI-1 [2]): 290 nM
– | >99 | O=C1SC(=Cc2cccc(O)c2O)C(=O)N1Cc1ccc(C=Cc2ccccc2)cc1 [compound 56, 5-(2,3-Dihydroxybenzylidene)-3-(4-styrylbenzyl)thiazolidine-2,4-dione] | inhibition of the complex formation of PAI-1 and tPA observed with SDS-PAGE (recombinant human PAI-1 [1]): completely inhibited; IC50 (recombinant human PAI-1 [2]): 140 nM
>99 | – | CC(C)C1=NN(c2ccc(F)c(Cl)c2)C(=O)C1=Cc1cc(O)c(O)cc1O [compound 515, 4-(2,4,5-Trihydroxybenzylidne)-1-(3-chloro-4-fluorophenyl)-3-isopropyl-2-pyrazolin-5-one] | inhibition of the complex formation of PAI-1 and tPA observed with SDS-PAGE (recombinant human PAI-1 [1]): completely inhibited; IC50 (recombinant human PAI-1 [2]): 500 nM
95 | – | O=C(Nc1ccc(O)c(O)c1)c1cc(C=C2SC(=O)N(Cc3cc(Cl)cc(Cl)c3)C2=O)ccc1O [compound 396] | –
>99 | – | Cc1cc(C=C2SC(=O)N(Cc3ccc(Cl)c(Cl)c3)C2=O)cc(C(=O)O)c1O [compound 390, 5-(3-Methyl-4-hydroxy-5-carboxybenzylidene)-3-(3,4-dichlorobenzyl)thiazolidine-2,4-dione] | –
– | >99 | CC1=NN(c2cc(Cl)cc(Cl)c2)C(=O)C1=Cc1ccc(O)c(O)c1 [compound 112, 4-(3,4-Dihydroxybenzylidene)-1-(3,5-dichlorophenyl)-3-methyl-2-pyrazolin-5-one] | –
– | >99 | COC(=O)c1cccc(N2N=C(C(F)(F)F)C(=Cc3ccc(-c4cc(Cl)cc(Cl)c4)o3)C2=O)c1 [compound 166, 4-{[5-(3,5-Dichlorophenyl)furan-2-yl]methylene}-1-[3-(methoxycarbonyl)phenyl]-3-trifluoromethyl-2-pyrazolin-5-one] | –
– | 89 | CCOC(=O)C1=NN(c2cccc(C(=O)OCC)c2)C(=O)C1=Cc1ccc(-c2cc(Cl)cc(Cl)c2)o1 [compound 185] | –
– | 74 | COc1ccc(OC)c(N2C(=O)C(=Cc3ccc(O)c(O)c3)SC2=S)c1 [compound 75, 5-(3,4-Dihydroxybenzylidene)-3-(2,5-dimethoxyphenyl)rhodanine] | –
– | 59 | CC1=NN(c2cccc(C(=O)O)c2)C(=O)C1=Cc1ccc(-c2cc(Cl)cc(Cl)c2)o1 [compound 191] | –
– | 95 | O=C1SC(=Cc2ccc(O)c(O)c2)C(=O)N1Cc1ccc(C=Cc2cc(C(F)(F)F)cc(C(F)(F)F)c2)cc1 [compound 58, 5-(3,4-Dihydroxybenzylidene)-3-{4-[3,5-bis(trifluoromethyl)styryl]-benzyl}thiazolidine-2,4-dione] | –
– | 27 | C=CCOc1ccc(C=C2C(=O)N(c3ccc(Cl)c(C(=O)O)c3)N=C2C)cc1OC [compound 169] | –
95 | – | COC(=O)c1cccc(NC(=O)c2cc(C=C3SC(=O)N(Cc4ccc(Cl)c(Cl)c4)C3=O)cc(O)c2O)c1 [compound 470] | –
>99 | – | O=C1SC(=Cc2ccc(O)c(F)c2)C(=O)N1Cc1ccc(Cl)c(Cl)c1 [compound 332] | –
>99 | – | COc1cccc(NC(=O)c2cc(C=C3SC(=O)N(Cc4ccc(Cl)c(Cl)c4)C3=O)ccc2O)c1 [compound 355, 5-[4-hydroxy-3-(3-methoxyphenylcarbamoyl)benzylidene]-3-(3,4-dichlorobenzyl)thiazolidine-2,4-dione] | –
– | 65 | CC(=O)Nc1ccc(C=C2SC(=O)N(Cc3ccc(Cl)c(Cl)c3)C2=O)cc1 [compound 79, 5-[4-(acetamido)benzylidene]-3-(3,4-dichlorobenzyl)-thiazolidine-2,4-dione] | –

Inhibitory Ratio at 25 μM (%) (recombinant human PAI-1 [2]; 25 μM test compound) | Inhibitory Ratio at 25 μM (%) (recombinant human PAI-1 [2]; test compound 25 μM) | SMILES | also measured
73 | – | COc1ccc(NC(=O)c2cc(C=C3SC(=O)N(Cc4cc(C(F)(F)F)cc(C(F)(F)F)c4)C3=O)ccc2O)cc1OC [compound 383, 5-[4-Hydroxy-3-(3,4-dimethoxyphenylcarbamoyl)benzylidene]-3-[3,5-bis(trifluoromethyl)benzyl]thiazolidine-2,4-dione] | –
95 | – | O=C(O)c1cc(C=C2SC(=O)N(Cc3ccc(Cl)c(Cl)c3)C2=O)ccc1O [compound 358, 5-(3-Carboxy-4-hydroxybenzylidene)-3-(3,4-dichlorobenzyl)thiazolidine-2,4-dione] | –
73 | – | COC(=O)c1ccc(NC(=O)c2cc(C=C3SC(=O)N(Cc4ccc(Cl)c(Cl)c4)C3=O)ccc2O)cc1 [compound 416, 5-{4-hydroxy-3-[4-(methoxycarbonyl)phenylcarbamoyl]benzylidene}-3-(3,4-dichlorobenzyl)thiazolidine-2,4-dione] | –
>99 | – | O=C(Nc1cccc(C=C2SC(=O)N(Cc3ccc(Cl)c(Cl)c3)C2=O)c1)c1ccc(O)c(O)c1 [compound 370] | –
– | 35 | COC(=O)c1cccc(N2N=C(C(C)C)C(=Cc3ccc(Br)o3)C2=O)c1 [compound 205] | –
>99 | – | COc1ccc(-c2ccccc2)cc1NC(=O)c1cc(C=C2SC(=O)N(Cc3ccc(Cl)c(Cl)c3)C2=O)ccc1O [compound 455] | –
– | >99 | O=C1SC(=Cc2cccc(O)c2O)C(=O)N1Cc1ccc(-c2ccccc2)cc1 [compound 20, 5-(2,3-Dihydroxybenzylidene)-3-(4-phenylbenzyl)thiazolidine-2,4-dione] | –
– | >99 | O=C1SC(=Cc2cc(O)ccc2[N+](=O)[O-])C(=O)N1Cc1ccc(Cl)c(Cl)c1 [compound 39] | –
62 | – | COc1ccc(Oc2ccc([N+](=O)[O-])c(C=C3C(=O)N(c4ccc(Cl)c(Cl)c4)N=C3C(C)C)c2)cc1OC [Compound No. 563, 4-[2-Nitro-5-(3,4-dimethoxyphenoxy)benzylidene]-1-(3,4-dichlorophenyl)-3-isopropyl-2-pyrazolin-5-one] | –
– | >99 | Cc1cc(C)cc(CN2C(=O)SC(=Cc3ccc(O)c(O)c3)C2=O)c1 [compound 27] | –
– | 60 | O=C(Nc1ccc(CN2C(=O)SC(=Cc3ccc(O)c(O)c3)C2=O)cc1)c1ccccc1 [compound 83] | –
72 | – | CCOC1=NN(c2ccc([N+](=O)[O-])cc2)C(=O)C1=Cc1cc(Br)ccc1O [compound 513] | –
73 | – | COc1ccc(C=C2SC(=O)N(Cc3ccc(Cl)c(Cl)c3)C2=O)cc1C(F)(F)F [compound 333] | –
>99 | – | COC(=O)c1cc(C=C2SC(=O)N(Cc3ccc(Cl)cc3Cl)C2=O)cc(O)c1O [compound 341, 5-[3,4-Dihydroxy-5-(methoxycarbonyl)benzylidene]-3-(2,4-dichlorobenzyl)thiazolidine-2,4-dione] | –
– | >99 | O=C1SC(=Cc2ccc(O)c(O)c2)C(=O)N1Cc1ccc(Oc2ccccc2)cc1 [compound 60, 5-(3,4-Dihydroxybenzylidene)-3-(4-phenoxybenzyl)thiazolidine-2,4-dione] | –
– | 90 | COC(=O)c1cccc(N2N=C(c3ccccc3)C(=Cc3ccc(-c4cc(Cl)cc(Cl)c4)o3)C2=O)c1 [compound 180] | –
– | 43 | O=C(O)c1cccc(N2N=C(C(F)(F)F)C(=Cc3ccc(-c4cc(Cl)cc(Cl)c4)s3)C2=O)c1 [compound 184] | –
>99 | – | COCC1=NN(c2cc(Cl)cc(Cl)c2)C(=O)C1=Cc1cc(Br)ccc1O [compound 521, 4-(2-Hydroxy-5-bromobenzylidene)-1-(3,5-dichlorophenyl)-3-methoxymethyl-2-pyrazolin-5-one] | –

SMILES | Inhibitory Ratio at 25 μM (%) (recombinant human PAI-1 [2]; 25 μM test compound) | Inhibitory Ratio at 25 μM (%) (recombinant human PAI-1 [2]; test compound 25 μM) | also measured
N=C(N)NCCC[C@H](N)C(=O)O.N=C(N)NCCC[C@H](N)C(=O)O.N=C(N)NCCC[C@H](N)C(=O)O.O=C1SC(=Cc2cc(O)c(O)c(O)c2)C(=O)N1Cc1ccc(Cl)c(Cl)c1 [compound 334, tri(L-(+)-arginine) salt of 5-(3,4,5-trihydroxybenzylidene)-3-(3,4-dichlorobenzyl)thiazolidine-2,4-dione] | >99 | – | inhibition of the complex formation of PAI-1 and tPA observed with SDS-PAGE (recombinant human PAI-1 [1]): completely inhibited; IC50 (recombinant human PAI-1 [2]): 540 nM
O=C(Nc1cccc(OC(F)(F)F)c1)c1cc(C=C2SC(=O)N(Cc3ccc(Cl)c(Cl)c3)C2=O)cc(O)c1O [compound 475] | 53 | – | inhibition of the complex formation of PAI-1 and tPA observed with SDS-PAGE (recombinant human PAI-1 [1]): completely inhibited; IC50 (recombinant human PAI-1 [2]): 520 nM
COc1ccc(C(F)(F)F)cc1NC(=O)c1cc(C=C2SC(=O)N(Cc3ccc(Cl)c(Cl)c3)C2=O)ccc1O [compound 468] | >99 | – | –
O=C(O)c1cccc(N2N=C(C(F)(F)F)C(=Cc3ccc(-c4cc(Cl)cc(Cl)c4)o3)C2=O)c1 [compound 176] | – | 65 | –
